Results published in patent publication US12441732B2, “Potassium salt crystal form B of phosphodiesterase type 5 inhibitor, and preparation method and use therefor” (Guangzhou Huazhen Pharmaceutical Co., Ltd, priority 2019, dated 2025).

What was measured:
[1] = Dynamic vapor sorption (DVS) hygroscopicity test; type: physicochemical
Experimental: Dynamic vapor adsorption (DVS) experiments were performed at 25° C. on a DVS Intrinsic instrument from SMS (Surface Measurement Systems) to test hygroscopicity of the potassium salt anhydrous crystal form B prepared in Embodiment 1. The test sample was first dried at 0% relative humidity (RH) to remove the adsorbed solvent or water, and then the test was started with a target RH of 0-95%.

[2] = test system: rats with isoproterenol-induced myocardial hypertrophy; test: Isoproterenol-induced myocardial hypertrophy in rats; type: in vivo, SD rats; conditions: Iso rats, 2 mg·kg^−1·d^−1 gavage, 7 days
Experimental: SD rats were randomly divided into 3 groups, 10 rats/group: a normal control group (CON); an isoproterenol-induced myocardial hypertrophy model group (Iso); an Iso+the potassium salt crystal form B of WYQ treatment group (hereafter referred to as a treatment group).
Isoproterenol was prepared into a 4 mg/ml medicinal solution with double-distilled water, which was ready to be used. The normal control group was injected with normal saline (5 mg/kg) subperitoneally, and the rest of the groups were injected with isoproterenol (5 mg/kg) subperitoneally once a day for 7 consecutive days.
Treatment group: the potassium salt crystal form B of WYQ was prepared into a 0.4 mg/ml medicinal solution with normal saline (ready to use) and administered by gavage at a dose of 2 mg·kg^−1·d^−1; and
the day of injection was the starting date of the experiment, and the administration was started 2 hours after the modeling, once a day for 7 consecutive days.
After 7 days from the starting date of the experiment, the left ventricle was intubated retrogradely through the right common carotid artery, and the hemodynamic indexes of each group of rats were collected on the RM-6240E polygraph, including the left ventricular pressure (LVP) and the rate of ventricular pressure change (dp/dt).
One week after the starting date of the experiment, the animals were anesthetized and hemodynamically tested (RM-6240E polygraph). The animals were sacrificed after pressure measurement. The heart tissues were immediately dissected and rinsed in frozen normal saline to remove blood. The heart was weighed quickly, and the left and right atria are cut along the atrio-ventricular junction with ophthalmic scissors. The left ventricle was separated, and absorbed water with filter paper, weighed, and put into liquid nitrogen for extraction of protein and mRNA to detect changes in the expression of hypertrophy-related factor genes. After 2 hours, the left ventricle tissue was transferred to a refrigerator at −80° C. for freezing and storage. After completing the above operations, the leg skin and muscles of the rats were cut with surgical scissors to fully expose the tibia, and the length of the tibia was measured. The myocardial hypertrophy index of rats was expressed by a heart-tibia length (HW-Tibia).

PAH rats = test: Monocrotaline-induced pulmonary arterial hypertension (PAH) rats: RVSP, RVMI, pulmonary arterioles; type: in vivo, SD rats; conditions: for RVMI, RV/(LV+S) / RVSP: 3 weeks after MCT
Excerpt: SD rats were randomly divided into 8 groups, 15 rats/group: a normal control group (Vehicle); a PAH model group (MCT); a PAH+potassium salt crystal form B of WYQ mini-dose group (hereafter referring to as a mini-dose group); a PAH+potassium salt crystal form B of WYQ low-dose group (hereafter referring to as a low-dose group); a PAH+potassium salt crystal form B of WYQ medium-dose group (hereafter referring to as a medium-dose group); a PAH+potassium salt crystal form B of WYQ high-dose group (hereafter referring to as a high-dose group); a PAH+Sildenafil control group (hereafter referring to as a Sildenafil group); a PAH+Tadalafil control group (hereafter referring to as a Tadalafil group).
MCT was fully dissolved with 1M dilute HCl, diluted with double-distilled water, and adjusted to pH=7.2 with 3M NaOH, thereby preparing a MCT solution with a final concentration of 20 mg/ml.
The normal control group was injected subperitoneally with normal saline (50 mg/kg), and the rest of the groups were injected subperitoneally with MCT (50 mg/kg) at one time.
Mini-dose group: the potassium salt crystal form B of WYQ was prepared into a 0.4 mg/ml medicinal solution (ready to use) with normal saline, and administered by gavage at the dose of 2 mg·kg^−1d^−1;
Low-dose group: the potassium salt crystal form B of WYQ was prepared into a 1 mg/ml medicinal solution (ready to use) with normal saline, and administered by gavage at the dose of 5 mg·kg^−1d^−1;
Medium-dose group: the potassium salt crystal form B of WYQ was prepared into a 2 mg/ml medicinal solution (ready to use) with normal saline, and administered by gavage at the dose of 10 mg·kg^−1d^−1;
High-dose group: the potassium salt crystal form B of WYQ was prepared into a 4 mg/ml medicinal solution (ready to use) with normal saline, and administered by gavage at the dose of 20 mg·kg^−1d^−1;
Sildenafil group: Sildenafil was prepared into a 5 mg/ml medicinal solution (ready to use) with 0.5% sodium carboxymethyl cellulose, and administered by gavage at the dose of 25 mg·kg^−1d^−1;
Tadalafil group: Tadalafil was prepared into a 2 mg/ml medicinal solution (ready to use) with 0.5% sodium carboxymethyl cellulose, and administered by gavage at the dose of 10 mg·kg^−1d^−1.
The day of injection was the starting date of the experiment, and the administration was started after 7 days of modeling, once a day for 14 consecutive days.
After 3 weeks from the starting date of the experiment, RVSP data were collected on RM-6240E polygraph for each group of rats.
After 3 weeks from the starting date of the experiment, the animals were anesthetized, hemodynamically tested (RM-6240E polygraph), and sacrificed after manometry. The cardiopulmonary tissues were immediately dissected, and the right and left atria and great vessels were cut off along the atrioventricular junction with ophthalmic scissors to separate the right ventricle (RV) and left ventricular wall plus septum (LV+S), which was absorbed water with filter paper and weighed respectively, and RV/(LV+S), i.e., RVMI was calculated.
After 3 weeks from the starting date of the experiment, rats were heparinized with heparin (50 IU/100 g, intraperitoneal injection) for 5 min. The animals were anesthetized by injection of 20% urethane solution (0.5 ml/100 g), and the blood pressure indexes were detected and recorded.
The heart was dissected, the right ventricular wall was separated, and the left ventricle and the septum were separated, which were absorbed water with filter paper and weighed respectively to calculate the right ventricular hypertrophy index.
The lungs were dissected, wherein the right lung was ligated, and the left lung lobe was perfused with a fixative (4% paraformaldehyde) and then fixed in the fixative, dehydrated by ethanol gradient, allowed to become transparent by using xylene, immersed in wax, embedded in paraffin, sectioned (4 μm), stained with hematoxylin-eosin (HE), sealed with neutral gum and then observed under a microscope. […]

[3] = high-dose 20 mg·kg^−1d^−1 gavage once a day for 14 days
[4] = low-, medium- and high-dose groups (5, 10, 20 mg·kg^−1d^−1)
[5] = low-dose 5 mg·kg^−1d^−1 gavage once a day for 14 days
[6] = medium-dose 10 mg·kg^−1d^−1 gavage once a day for 14 days
[7] = mini-dose 2 mg·kg^−1d^−1 gavage once a day for 14 days

## CCCCOC(=O)[N-]S(=O)(=O)c1cccc(-c2nc3c(CCC)nn(C)c3c(=O)[nH]2)c1.[K+] [potassium salt crystal form B]
[1]; DVS 0-95% RH, 25° C.
  crystal form before and after the DVS test (XRPD): did not change
[1]; DVS, 25° C./80% RH
  change in mass (water adsorption amount): 0.6%
  hygroscopicity: slight hygroscopicity
[2]
  BNP gene expression in heart tissue vs model group: significantly decreased
  HW-Tibia ratio vs model group: significantly reduced
  Max dp/dt vs model group: significantly higher
  Min dp/dt vs model group: significantly higher
  expression of ANP gene in left heart tissue vs model group: significantly decreased
  expression of ANP protein in left heart tissue vs model group: significantly decreased
  left ventricle-tibia length ratio vs model group: significantly reduced
  left ventricular pressure (LVP) vs model group: significantly higher
PAH rats; [3]
  RVMI, RV/(LV+S): 34.6±19%
  RVSP: 29.8±1.6 mmHg
PAH rats; [4]
  WT % of pulmonary arterioles vs PAH model group: decreased and improved significantly
  tunica media thickness of pulmonary arterioles vs PAH model group: decreased and improved significantly
PAH rats; [5]
  RVMI, RV/(LV+S): 40.6±2.7%
  RVSP: 47.6±1.9 mmHg
PAH rats; [6]
  RVMI, RV/(LV+S): 38.7±2.1%
  RVSP: 40.7±1.5 mmHg
PAH rats; [7]
  RVMI, RV/(LV+S): 42.8±2.1%
  RVSP: 56.2±0.5 mmHg
